Measured values taken from US6413972B1, “Nitrogen-containing heterocyclic compounds, their production and use” (Takeda Chemical Industries, Ltd., priority 1997, dated 2002).
Counter-ions that a name gives are not always drawn.

tested on: not given; assay: not given; conditions: not given

First: Cc1c(-c2ccccc2)nc2n(Cc3c(F)cccc3F)cc(C(=O)CC(C)C)c(=O)n12 (as salt: hydrochloride) [Example 28, 8-(2,6-difluorobenzyl)-5,8-dihydro-2-phenyl-3-methyl-6-(3-methylbutyryl)-5-oxoimidazo[1,2-a]pyrimidine]
Second: CCOC(=O)c1cn(Cc2c(F)cccc2F)c2nc(-c3ccc([N+](=O)[O-])cc3)c(C)n2c1=O [Example 5, 8-(2,6-difluorobenzyl)-5,8-dihydro-3-methyl-2-(4-nitrophenyl)-5-oxoimidazo[1,2-a]pyrimidine-6-carboxylic acid ethyl ester]
The melting point of the first is lower: 158 to 166 °C for the first, 219 to 221 °C for the second.

Compared with `CCOC(=O)c1cnc2nc(-c3ccccc3)c(C)n2c1O` [Example 1, 5-hydroxy-3-methyl-2-phenylimidazo[1,2-a]pyrimidine-6-carboxylic acid ethyl ester], `CCOC(=O)c1cn(Cc2c(F)cccc2F)c2nc(-c3ccc([N+](=O)[O-])cc3)c(CO)n2c1=O` [Example 11, 8-(2,6-difluorobenzyl)-5,8-dihydro-3-(hydroxymethyl)-2-(4-nitrophenyl)-5-oxoimidazo[1,2-a]pyrimidine-6-carboxylic acid ethyl ester] is higher in melting point: 220 to 225 °C for the first, 230 to 232 °C for the second.

First: CCOC(=O)c1cn(Cc2c(F)cccc2F)c2nc(-c3ccc([N+](=O)[O-])cc3)c(CBr)n2c1=O [Example 7, 3-bromomethyl-8-(2,6-difluorobenzyl)-5,8-dihydro-2-(4-nitrophenyl)-5-oxoimidazo[1,2-a]pyrimidine-6-carboxylic acid ethyl ester]
Second: CCOC(=O)c1cn(Cc2c(F)cccc2F)c2nc(-c3ccc([N+](=O)[O-])cc3)c(CN(C)Cc3ccccc3)n2c1=O [Example 9, 8-(2,6-difluorobenzyl)-5,8-dihydro-3-(N-methyl-N-benzylaminomethyl)-2-(4-nitrophenyl)-5-oxoimidazo[1,2-a]pyrimidine-6-carboxylic acid ethyl ester]
The melting point of the first is higher: 205 to 210 °C for the first, 187 to 189 °C for the second.

Compared with `CCOC(=O)c1cn(Cc2c(F)cccc2F)c2nc(-c3ccc(N)cc3)c(CN(C)Cc3ccccc3)n2c1=O` [Example 12, 2-(4-aminophenyl)-8-(2,6-difluorobenzyl)-5,8-dihydro-3-(N-methyl-N-benzylaminomethyl)-5-oxoimidazo[1,2-a]pyrimidine-6-carboxylic acid ethyl ester], `CON(C)C(=O)c1cn(Cc2c(F)cccc2F)c2nc(-c3ccc(N)cc3)c(CN(C)Cc3ccccc3)n2c1=O` [Example 30, 8-(2,6-difluorobenzyl)-5,8-dihydro-2-(4-aminophenyl)-3-(N-methyl-N-benzylaminomethyl)-5-oxoimidazo[1,2-a]pyrimidine-6-(N-methyl-N-methoxy)carboxamide] is lower in melting point: 161 to 166 °C for the first, 89 to 91 °C for the second.

First: CCOC(=O)c1cn(Cc2c(F)cccc2F)c2nc(-c3ccc(NC(=O)C(C)C)cc3)c(CN(C)Cc3ccccc3)n2c1=O [Example 14, 8-(2,6-difluorobenzyl)-5,8-dihydro-2-(4-isobutyrylaminophenyl)-3-(N-methyl-N-benzylaminomethyl)-5-oxoimidazo[1,2-a]pyrimidine-6-carboxylic acid ethyl ester]
Second: CCNC(=O)Nc1ccc(-c2nc3n(Cc4c(F)cccc4F)cc(C(=O)OCC)c(=O)n3c2CN(C)Cc2ccccc2)cc1 [Example 15, 8-(2,6-difluorobenzyl)-5,8-dihydro-2-(4-ethylaminocarbonylaminophenyl)-3-(N-methyl-N-benzylaminomethyl)-5-oxoimidazo[1,2-a]pyrimidine-6-carboxylic acid ethyl ester]
The melting point of the first is lower: 98 to 103 °C for the first, 191 to 196 °C for the second.

Compared with `CC(=O)N(C(=O)OC(C)(C)C)c1ccc(-c2nc3n(Cc4c(F)cccc4F)c(C)c(Cc4ccccc4)c(=O)n3c2C)cc1` [Example 17, 8-(2,6-difluorobenzyl)-5,8-dihydro-2-(4-(N-Boc-N-acetylamino)phenyl)-3-methyl-6-benzyl-7-methyl-5-oxoimidazo[1,2-a]pyrimidine], `Cc1c(Cc2ccccc2)c(=O)n2c(CN(C)Cc3ccccc3)c(-c3ccc(NC(=O)OC(C)(C)C)cc3)nc2n1Cc1c(F)cccc1F` [Example 19, 2-[4-(N-Boc-amino)phenyl]-8-(2,6-difluorobenzyl)-5,8-dihydro-3-(N-methyl-N-benzylaminomethyl)-6-benzyl-7-methyl-5-oxoimidazo[1,2-a]pyrimidine] is higher in melting point: 176 to 177 °C for the first, 179 to 184 °C for the second.

First: CN(Cc1ccccc1)Cc1c(-c2ccc(NC(=O)c3ccoc3)cc2)nc2n(Cc3c(F)cccc3F)cc(C(=O)c3ccccc3)c(=O)n12 [Example 31, 8-(2,6-difluorobenzyl)-5,8-dihydro-2-(3-furylcarbonylaminophenyl)-3-(N-methyl-N-benzylaminomethyl)-6-benzoyl-5-oxoimidazo [1,2-a]pyrimidine]
Second: CCNC(=O)Nc1ccc(-c2nc3n(Cc4c(F)cccc4F)cc(C(=O)OC(C)C)c(=O)n3c2CN(C)Cc2ccccc2)cc1 [Example 34, 8-(2,6-difluorobenzyl)-5,8-dihydro-2-[4-(ethylaminocarbonylamino)phenyl]-3-(N-methyl-N-benzylaminomethyl)-5-oxoimidazo[1,2-a]pyrimidine-6-carboxylic acid isopropyl ester]
The melting point of the first is lower: 172 to 174 °C for the first, 198 to 200 °C for the second.

target: T1, human GnRH receptor (Homo sapiens, UniProt P30968); assay: 125I-leuprorelin binding inhibition on CHO cell membrane fraction containing human GnRH receptor; conditions: membrane fraction of human GnRH receptor-expressing CHO cells, 25° C. for 60 minutes, from a Hill plot
T1 construct: expressed in transfected cells; host or cells: CHO (Chinese hamster ovary) cells; membrane fraction
T1 sequence (P30968 1-328): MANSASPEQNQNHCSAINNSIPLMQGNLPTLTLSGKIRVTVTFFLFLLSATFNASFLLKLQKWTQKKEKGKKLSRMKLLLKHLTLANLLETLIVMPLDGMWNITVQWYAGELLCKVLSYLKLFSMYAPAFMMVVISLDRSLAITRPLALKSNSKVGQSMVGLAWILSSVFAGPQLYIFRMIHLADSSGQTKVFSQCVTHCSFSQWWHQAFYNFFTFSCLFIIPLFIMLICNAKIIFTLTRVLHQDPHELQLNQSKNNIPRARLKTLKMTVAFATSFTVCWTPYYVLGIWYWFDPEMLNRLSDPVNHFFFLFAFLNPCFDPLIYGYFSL
Method: To a tube containing 10 μl of a 3×10^−4 M aqueous solution of leuprorelin and 10 μl of 0.01 mg/ml lactoperoxidase, 10 μl (37 MBq) of a solution of Na^125I was added. After stirring, 10 μl of 0.001% H2O2 was added, and a reaction was carried out at about 15 to 25° C. for 20 minutes. By adding 700 μl of a 0.05% TFA (trifluoroacetic acid) solution, the reaction was stopped, followed by purification by reversed-phase HPLC. The HPLC conditions used are shown below. ^125I-leuprorelin was eluted at a retention time of 26 to 27 minutes. […]
The human membrane fraction prepared in paragraph (2) above was diluted with the assay buffer to yield a 200 μg/ml dilution, which was then dispensed at 188 μl per tube. […] To determine maximum binding quantity, a reaction mixture of 2 μl of 60% DMSO and 10 μl of 38 nM ^125I-leuprorelin was prepared. […]
After a reaction was carried out at 25° C. for 60 minutes, the reaction mixture was aspirated and filtered through a polyethyleneimine-treated Whatman glass filter (GF-F). After this filtration, the radioactivity of ^125I-leuprorelin remaining on the filter paper was measured, using a γ-counter.
The binding inhibition rate (%) for the subject compound (PMB) was calculated, using the equation: […]

Compound `CCNC(=O)Nc1ccc(-c2nc3n(Cc4c(F)cccc4F)cc(C(=O)OCC)c(=O)n3c2CN(C)Cc2ccccc2)cc1` [Example 15, 8-(2,6-difluorobenzyl)-5,8-dihydro-2-(4-ethylaminocarbonylaminophenyl)-3-(N-methyl-N-benzylaminomethyl)-5-oxoimidazo[1,2-a]pyrimidine-6-carboxylic acid ethyl ester] has an IC50 of 0.5 nM.
